Laboratory results: publication PMC9200803, “Design, synthesis, and biological evaluation of tetrahydroquinolinones and tetrahydroquinolines with anticancer activity” (Scientific Reports, 2022)

Key:
Type in all cases: cell-based, human
[1] = tested on: HCT-116 cells; test: Acridine orange staining of acidic vesicular organelles; conditions: HCT-116, p < 0.01
Description: Then, to elucidate whether compound 20d can act as an autophagy modulator, we stained cells with acridine orange (AO), a lysotropic agent. AO is a weak base that can permeate the cell membrane in an uncharged state emitting green fluorescence. After protonation, AO forms aggregates in acidic vesicular organelles (AVOs), emitting red fluorescence. […] One of the hallmarks of autophagy is the conjugation of LC3-I with phosphatidylethanolamine, followed by its conversion to autophagosome-associated form LC3-II[39]. Taking this into account, we evaluated the expression of LC3I/II in colon cancer cells after exposure to 20d. Furthermore, we studied the expression of LAMP-1, a well-known lysosomal marker. […] This observation was also confirmed by increased punctate cytosolic LC3 fluorescence intensity when HCT-116 cells were assessed by confocal microscopy (Fig. 8e,g). […] It has been shown that multiple signaling pathways are involved in the modulation of autophagy, including the PI3K/AKT/mTOR pathway, which is especially involved in the stage of autophagosome elongation[41],[42]. In this study, we investigated whether 20d-induced autophagy in HCT-116 cells is related to PI3K/AKT/mTOR signaling. […] This proves that 20d induced autophagy cell death in HCT-116 cells by interfering with the PI3K/AKT/mTOR signaling pathway.

[2] = tested on: hMLH1-proficient RKO cells; test: ROS level, H2DCFDA probe, MMR-proficient RKO; conditions: 1 h of exposure, vs control
Method: (§1) Then, we confirmed whether the induction of cellular stress by 20d is related to MMR deficiency by exposing MMR-deficient and MMR-proficient cells to the compound for different times and measuring the ROS levels. Our results indicated a greater increase in the level of ROS after 1 h of exposure in 20d-treated MMR-deficient cells than in MMR-proficient cells (54.71 ± 2.70% and 22.27 ± 1.7%, respectively), in comparison to control (Fig. 7).
(§2) The […] ROS levels were determined using an H2DCFDA (2′,7′-dichlorodihydrofluorescein diacetate) probe (Thermo Fisher) following the manufacturer’s protocol. […] DMSO (1%, Merck) and 250 μM H2O2 were used as a negative and positive control, respectively. NAC (500 μM, Sigma-Aldrich) was used as an ROS scavenger to confirm the ROS activity. After treatment with 20d and 19b, cells were incubated with H2DCFDA at 37 °C for 30 min. Subsequently, cells were harvested by trypsinization, rinsed with PBS, and stained with 7-AAD (Thermo Fisher). Finally, the stained cells were analyzed by flow cytometry using a Guava easyCyte 8 cell sorter (Merck Millipore) and FlowJo v10 software.

[3] = tested on: MCF-7 cells; test: MTT cell viability assay, MCF-7; conditions: Homo sapiens, MCF7, 72 h, IC50 ± SD
Method: To evaluate the effects of the newly synthesized tetrahydroquinolin-2(1H)-one derivatives on cell viability, we treated human colon cancer cells HCT-116, human breast cancer cells MCF-7, and human non-small cell lung cancer cells A-549 with different concentrations of the compounds for 72 h. After incubation, the MTT (3-(4,5-dimethylthiazol-2-yl)-2,5-diphenyltetrazolium bromide) assay was performed and the cytotoxic potency of compounds (expressed in IC50) on the cells was determined in comparison to control cells treated with 1% of dimethyl sulfoxide (DMSO) (Table 1). […] We also compared the activity of 20d and 19b to the reference control drug Cisplatin, which is widely used in chemotherapy.
A-549 (CCL-185) and MCF-7 ([…]) cells were cultured in RPMI-1640 medium, while HCT-116 (CVCL-427), (hMLH1)-deficient (MMR^–) and hMLH1-proficient (MMR^+) RKO cells were cultured in McCoy’s 5A medium. The culture media were supplemented with 10% fetal bovine serum, 2 mM L-glutamine, and antibiotics (penicillin 62.6 µg/ml and streptomycin 40 µg/ml). Cultivation of cell lines was carried out at 37 °C under a humidified atmosphere containing 5% CO2, and the cultures were routinely screened for Mycoplasma contamination. A-549, MCF-7, and HCT-116 cells were obtained from American Type Culture Collection (ATCC), while RKO colon carcinoma cells were a kind gift of Dr Timothy Kinsella (Brown University, USA).
The viability of cells was determined in response to the newly synthesized compounds using the MTT (Sigma-Aldrich) assay. Briefly, cells were seeded into 96-well plates and allowed to attach overnight. Then, cells were exposed to various concentrations of compounds for 24, 48 or 72 h. Negative controls were treated with the same amount of DMSO solvent (1%). After treatment, the MTT solution (0.4 mg/ml) was added to each well and allowed to react with cells for 2–3 h at 37 °C. Next, the medium was removed, the formazan product formed was dissolved in 100 μl of DMSO, and the absorbance was determined at 540 nm using an ASYS UVM340 microplate reader (Biochrom Ltd.). The IC50 value, which represents the concentration of the compound required to inhibit cell growth by 50% compared to vehicle, was calculated using GraphPad Prism 8 software based on the curves plotting survival against dose averaged from at least three independent experiments.

[4] = tested on: HCT-116 cells; test: Cell cycle distribution analysis by flow cytometry (PI staining); conditions: HCT-116, 24 to 72 h, vs vehicle
Method: Based on their antiproliferative activity, 20d and 19b were evaluated for their effect on cell cycle phase distribution and DNA content by flow cytometry.
HCT-116 and A-549 cells were seeded into culture plates and allowed to attach overnight. Then, cells were incubated with the investigated compounds for the indicated time points. After incubation, the harvested cells were fixed with ice-cold 75% ethanol and stored overnight at − 20 °C. Next, cells were rehydrated with PBS in ice for 15 min and washed twice in PBS. Finally, cells were stained with […] propidium iodide (PI) and […] RNase A in PBS for 30 min at room temperature. Cell cycle distribution was determined using a Guava easyCyte 8 flow cytometer (Merck Millipore) and FlowJo v10 software.

[5] = tested on: hMLH1-deficient RKO cells; test: ROS level, H2DCFDA probe, MMR-deficient RKO; conditions: 1 h of exposure, vs control
Method: as §1, §2

[6] = tested on: HCT-116 cells; test: Annexin V-FITC / PI staining, flow cytometry; conditions: HCT-116, Annexin V/PI
Description: Due to its ability to mediate the redox signaling pathways, ROS interplays between two major types of programmed cell death: autophagy and apoptosis. One of the early events in the process of apoptosis is the translocation of phosphatidylserine to the exposed membrane surface, which can be detected using Annexin V, a protein with a high affinity to this phospholipid. In order to study the impact of 20d on apoptotic cell death, flow cytometry analyses with double-staining using Annexin V-fluorescein isothiocyanate (FITC) conjugate and propidium ioidide (PI) was performed.
To determine the proapoptotic activity of compounds, cells were seeded into Petri dishes. […] DMSO (1%, Merck) and Etoposide (10 μM, Sigma-Aldrich) were used as references. Cells were harvested and stained with FITC-Annexin V, (Thermo Fisher, V13242) according to the manufacturer’s instructions. Finally, cells were stained with propidium iodide (Thermo Fisher) and assessed using a Guava easyCyte 8 cell sorter (Merck Millipore). The results were analyzed using FlowJo v10 software.

O=C(Nc1cccc(F)c1)OC1CCCc2c(-c3ccccc3)cc(=O)[nH]c21 (stereo not shown) [Compound 20d, (2-oxo-4-phenyl-5,6,7,8-tetrahydroquinolin-8-yl) N-(3-fluorophenyl)carbamate]
increase in red fluorescence (AVOs) in comparison to vehicle [1]: 1.9 fold
increase in the level of ROS [2]: 22.27 ± 1.7%
IC50 [3]: > 50 µM
increase in the number of cells in the G0/G1 phase [4]: < 14%
number of cells in the S-phase [4]: substantial decrease
increase in the level of ROS [5]: 54.71 ± 2.70%
early and late apoptotic and necrotic fractions [6]: on the same level as in DMSO-treated group
